Experimental data: US20050175555A1, “Polyunsaturated linear aldehydes and their derivatives with anti-radical and anti-tumoral activity” (priority 2002, published 2005)

System: UV-induced erythema
Assay: UV-induced erythema prevention test
Assay type: in vivo
Details: guinea pig ear, UV lamp 30 sec, 10% suspension topical, approx. 3 hours
Procedure: UV-induced erythema was caused by applying a UV lamp (Hanoivna Kramager) to the ear of a guinea pig for 30 sec; the lamp transmitted rays with a wavelength of […], which consequently included UV-B, UV-C and UV-A rays, through a special filter.
Excipients only or a suspension containing 5 or 10% 2,4,6,8,10,12,14-hexadecaheptaenol palmitate were spread on the ear of the test animals, and the temperature increase resulting from the UV-induced erythema was measured with a thermoelectric thermometer after approx. 3 hours in the control animals and the test animals.

CC=CC=CC=CC=CC=CC=CC=CCOC(=O)CCCCCCCCCCCCCCC [2,4,6,8,10,12,14-hexadecaheptaenyl palmitate]
appearance of heat and erythema: inhibited
